Results as given in ChEMBL document CHEMBL1914397, “Daedalols A-C, fungal-derived BACE1 inhibitors” (Bioorg Med Chem, 2011).

Molecular target: Beta-secretase 1 (Homo sapiens, UniProt P56817)
Assay: Inhibition of BACE1-mediated amyloid precursor protein cleavage after 16 hrs by chemiluminescent enzyme-fragment complementation assay

Sequence of Beta-secretase 1 (P56817 whole entry, the tested form may be a part): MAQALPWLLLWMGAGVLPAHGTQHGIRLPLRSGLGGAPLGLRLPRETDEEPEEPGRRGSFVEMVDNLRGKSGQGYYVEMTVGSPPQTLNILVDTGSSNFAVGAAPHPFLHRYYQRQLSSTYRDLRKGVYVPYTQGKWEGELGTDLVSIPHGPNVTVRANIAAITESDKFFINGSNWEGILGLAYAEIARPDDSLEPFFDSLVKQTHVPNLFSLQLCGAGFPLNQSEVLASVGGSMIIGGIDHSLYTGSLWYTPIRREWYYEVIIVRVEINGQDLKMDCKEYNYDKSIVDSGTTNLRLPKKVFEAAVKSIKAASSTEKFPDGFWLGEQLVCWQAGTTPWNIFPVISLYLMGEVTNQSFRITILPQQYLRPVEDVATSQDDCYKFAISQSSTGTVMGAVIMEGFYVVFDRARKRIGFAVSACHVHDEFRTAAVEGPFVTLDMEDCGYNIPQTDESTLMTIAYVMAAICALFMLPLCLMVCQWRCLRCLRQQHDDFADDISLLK

SMILES: C[C@H](CC(=O)[C@@]1([C@H](C)C(=O)O)CO1)[C@H]1CC[C@@]2(C)C3=C(CC[C@]12C)[C@@]1(C)CC[C@@H](OC(=O)CC(=O)O)C(C)(C)[C@@H]1CC3 [DAEDALOL C]
- IC50: 14.2 µM
